Experimental data published in US7722892B2, “Compounds” (Syngenta Crop Protection, Inc., priority 2001, dated 2010).

Assays:
[1] = system: AVEFA Avena fatua (wild oats); test: Glasshouse weed kill, adjuvant with fluazifop-P-butyl, track sprayer; type: in vivo; details: adjuvant 0.2% v/v, 21 days after treatment; for Mean Activity (% weed kill) AVEFA: with fluazifop-p-butyl, mean of 3 replicates and 4 rates; for ED90 AVEFA (concentration required to provide 90% weed kill): fluazifop-p-butyl rate, 200 l/ha
Experimental: (§1) An agrochemical composition was prepared containing 0.2% v/v of an adjuvant in a track sprayer containing fluazifop P butyl emulsified at one of four different concentrations. Weeds which had been grown to the 2.3 leaf stage were sprayed using volumes of 200 l/ha. Each sample was replicated three times. The following weed species were tested:— • AVEFA Avena fatua (wild oats) • LOLRI Lolium rigidum (rye grass) • TRZAW Triticum aestivum (wheat) • SETVI Setaria viridis (green foxtails)
(§2) Activity was measured 21 days after treatment and was compared with a standard composition containing only fluazifop-p-butyl. The concentration required to provide 90% weed kill was calculated and is given in TABLE 1 below together with the mean ED90 across the species.
(§3) Further adjuvants of the present invention were tested for activity in combination with fluzifop-p-butyl. Activity (% weed kill) was measured 21 days after treatment and is given as a mean of 3 replicates and 4 rates of fluazifop-p-butyl. All adjuvants were applied at 0.2% v/v. The results are given in Table 2 in comparison with a corresponding composition containing no adjuvant.

[2] = system: LOLRI Lolium rigidum (rye grass); test: as above; type: in vivo; details: adjuvant 0.2% v/v, 21 days after treatment; for Mean Activity (% weed kill) LOLRI: with fluazifop-p-butyl, mean of 3 replicates and 4 rates; for ED90 LOLRI (concentration required to provide 90% weed kill): fluazifop-p-butyl rate, 200 l/ha
Experimental: as §1, §2, §3

[3] = system: SETVI Setaria viridis (green foxtails); test: as above; type: in vivo; details: adjuvant 0.2% v/v, 21 days after treatment; for Mean Activity (% weed kill) SETVI: with fluazifop-p-butyl, mean of 3 replicates and 4 rates; for ED90 SETVI (concentration required to provide 90% weed kill): fluazifop-p-butyl rate, 200 l/ha
Experimental: as §1, §2, §3

[4] = system: TRZAW Triticum aestivum (wheat); test: as above; type: in vivo; details: adjuvant 0.2% v/v, 21 days after treatment; for Mean Activity (% weed kill) TRZAW: with fluazifop-p-butyl, mean of 3 replicates and 4 rates; for ED90 TRZAW (concentration required to provide 90% weed kill): fluazifop-p-butyl rate, 200 l/ha
Experimental: as §1, §2, §3

[5] = system: AVEFA, LOLRI, TRZAW, SETVI; test: Weed kill with fluazifop-P-butyl, mean across the species; type: in vivo; details: adjuvant 0.2% v/v, 21 days after treatment; for Mean Activity (% weed kill) Mean over all species: with fluazifop-p-butyl; for Mean ED90 across the species: fluazifop-p-butyl rate
Experimental: as §1, §2, §3

[6] = system: Puccinia recondita; test: Glasshouse disease control with azoxystrobin on inoculated barley; type: in vivo; details: adjuvant 0.5% v/v tank mix, four replicates
Experimental: The results quoted are the mean percentage disease control from four replicates on barley inoculated with Puccinia recondita. The adjuvant was added as a 0.5% v/v tank mix.

[7] = system: ALOMY; test: Adjuvant with thin leaved grass herbicide (oxadiazepine pivalate ester), track sprayer; type: in vivo; details: 200 l/ha, average of two replicates
Experimental: (§4) The indicated adjuvants were evaluated in combination with a thin leaved grass herbicide 2,2,-dimethyl-propionic acid-8-(2,6-diethyl-4-methyl-phenyl)-9-oxo-1,2,4,5-tetrahydro-9H-pyrazolo[1,2-d][1,4,5]oxadiazepine-7-yl ester. The weeds were sprayed at the growth stages shown in the table with pesticide emulsions using a track sprayer and volumes of 200 l/ha. The adjuvants were added at 5% v/v as tank mix additives. Each result is the average of two replicates.

[8] = system: APESV (Apera Spica-Venti); test: as above; type: in vivo; details: 200 l/ha, average of two replicates
Experimental: as §4

[9] = system: LOLMU; test: as above; type: in vivo; details: 200 l/ha, average of two replicates
Experimental: as §4

[10] = system: PHAPA (Phalaris paradoxa); test: as above; type: in vivo; details: 200 l/ha, average of two replicates
Experimental: as §4

[11] = system: AVEFA; test: as above; type: in vivo, Avena fatua; details: 200 l/ha, average of two replicates
Experimental: as §4

[12] = system: ALOMY, APESV, AVEFA, LOLMU, PHAPA; test: Adjuvant with thin leaved grass herbicide, mean of all weeds; type: in vivo
Experimental: as §4

| Substance | Mean Activity (% weed kill) AVEFA [1] | Mean Activity (% weed kill) LOLRI [2] | Mean Activity (% weed kill) SETVI [3] | Mean Activity (% weed kill) TRZAW [4] | Mean Activity (% weed kill) Mean over all species [5] | ED90 AVEFA (concentration required to provide 90% weed kill) [1] | ED90 LOLRI (concentration required to provide 90% weed kill) [2] | ED90 SETVI (concentration required to provide 90% weed kill) [3] | ED90 TRZAW (concentration required to provide 90% weed kill) [4] | Mean ED90 across the species [5] | also measured |
| --- | --- | --- | --- | --- | --- | --- | --- | --- | --- | --- | --- |
| Isostearyl (2-hexyl-dodecan-1-ol) 10 Propylene Oxide [Isostearyl 10 PO] | 67.8% | 51.8% | 81.8% | 53.8% | 64% | – | – | – | – | – | – |
| Oleic Acid 20 Ethylene Oxide End-Capped Methyl Ether [Oleyl 20 EO Me ether] | 72.3% | 54.9% | 74.6% | 52.1% | 63% | – | – | – | – | – | – |
| Oleyl 20 Propylene Oxide End-Capped butyl ether [Oleyl 20P Bu Ether] | 67.4% | 46% | 75.9% | 38.8% | 57% | 23.4 g/ha | 48.6 g/ha | 19 g/ha | 32.2 g/ha | 30.8 g/ha | – |
| Oleic Acid 10 Ethylene Oxide End-Capped Methyl Ether [Oleic 10E Me Ether] | 71.3% | 56.2% | 78.4% | 56.1% | 66% | 16.7 g/ha | 34.8 g/ha | 15.8 g/ha | 28.4 g/ha | 23.9 g/ha | – |
| Isostearyl (2-hexyl-dodecan-1-ol) 20 Propylene Oxide [Isostearyl 20 PO] | 58% | 52.5% | 80.9% | 37.3% | 57% | – | – | – | – | – | – |
| Oleyl 10 Propylene Oxide End-Capped butyl ether [Oleyl 10P Bu Ether] | 71.4% | 54.4% | 84.2% | 45.8% | 64% | 19.8 g/ha | 34.9 g/ha | 16.7 g/ha | 29.2 g/ha | 25.2 g/ha | – |
| Oleyl 20 Propylene Oxide [Oleyl 20 PO] | 70.6% | 36.3% | 80.4% | 53.3% | 60% | – | – | – | – | – | – |
| Oleyl 20 Ethylene Oxide End-Capped Butyl Ether [Oleyl 20E Bu Ether] | 76.1% | 68.8% | 78.1% | 59.3% | 71% | 19.5 g/ha | 27.5 g/ha | 16.5 g/ha | 21.4 g/ha | 21.2 g/ha | mean percentage disease control ([6]; Azoxystrobin 0 mgai/l): 5.9%; mean percentage disease control ([6]; Azoxystrobin 0.625 mgai/l (Quadris 25 SC)): 66.5%; mean percentage disease control ([6]; Azoxystrobin 1.25 mgai/l (Quadris 25 SC)): 82.7%; mean percentage disease control ([6]; Azoxystrobin 2.5 mgai/l (Quadris 25 SC)): 90.5% |
| Oleyl 10 Ethylene Oxide End-Capped Butyl Ether [Oleyl 10 EO Bu ether] | 73.3% | 56.5% | 85.6% | 56% | 68% | – | – | – | – | – | ALOMY activity ([7]; herbicide rate 5 gai/ha): 53; ALOMY activity ([7]; herbicide rate 7.5 gai/ha): 75; ALOMY activity ([7]; herbicide rate 10 gai/ha): 88; APESV activity ([8]; herbicide rate 5 gai/ha): 53; APESV activity ([8]; herbicide rate 7.5 gai/ha): 97; APESV activity ([8]; herbicide rate 10 gai/ha): 98; LOLMU activity ([9]; herbicide rate 5 gai/ha): 91; LOLMU activity ([9]; herbicide rate 7.5 gai/ha): 98; LOLMU activity ([9]; herbicide rate 10 gai/ha): 93; PHAPA activity ([10]; herbicide rate 5 gai/ha): 93; PHAPA activity ([10]; herbicide rate 7.5 gai/ha): 96; PHAPA activity ([10]; herbicide rate 10 gai/ha): 99; AVEFA activity ([11]; herbicide rate 5 gai/ha): 89; AVEFA activity ([11]; herbicide rate 7.5 gai/ha): 98; AVEFA activity ([11]; herbicide rate 10 gai/ha): 99; Mean All Weeds ([12]; herbicide rate 5 gai/ha): 76; Mean All Weeds ([12]; herbicide rate 7.5 gai/ha): 93; Mean All Weeds ([12]; herbicide rate 10 gai/ha): 95 |
| Oleyl 10 Propylene Oxide [Oleyl 10PO] | 72.6% | 55.9% | 84.6% | 54.3% | 67% | – | – | – | – | – | ALOMY activity ([7]; herbicide rate 5 gai/ha): 55; ALOMY activity ([7]; herbicide rate 7.5 gai/ha): 70; ALOMY activity ([7]; herbicide rate 10 gai/ha): 92; APESV activity ([8]; herbicide rate 5 gai/ha): 23; APESV activity ([8]; herbicide rate 7.5 gai/ha): 89; APESV activity ([8]; herbicide rate 10 gai/ha): 98; LOLMU activity ([9]; herbicide rate 5 gai/ha): 33; LOLMU activity ([9]; herbicide rate 7.5 gai/ha): 60; LOLMU activity ([9]; herbicide rate 10 gai/ha): 80; PHAPA activity ([10]; herbicide rate 5 gai/ha): 23; PHAPA activity ([10]; herbicide rate 7.5 gai/ha): 98; PHAPA activity ([10]; herbicide rate 10 gai/ha): 99; AVEFA activity ([11]; herbicide rate 5 gai/ha): 70; AVEFA activity ([11]; herbicide rate 7.5 gai/ha): 96; AVEFA activity ([11]; herbicide rate 10 gai/ha): 98; Mean All Weeds ([12]; herbicide rate 5 gai/ha): 41; Mean All Weeds ([12]; herbicide rate 7.5 gai/ha): 83; Mean All Weeds ([12]; herbicide rate 10 gai/ha): 93 |
